US10131642B1, “Aldosterone synthase inhibitors” (Boehringer Ingelheim International GmbH, priority 2015, dated 2018)
Where a name gives a salt, the structure may show the parent alone. Read-outs that look alike come from different tables or passages of the source.

How the values were obtained:
[1] = biological target: T1, aldosterone synthase (CYP11B2) (Macaca fascicularis, UniProt A0A2K5UPL9); assay: Inhibition of aldosterone synthase (cynomolgus adrenal mitochondria, aldosterone by mass spectrometry); assay type: biochemical, cynomolgus monkey; details: cynomolgus adrenal gland mitochondria, 2 μM corticosterone substrate, 90 minutes at 37° C.
T1 construct: cynomolgus adrenal gland mitochondria as the source of aldosterone synthase (CYP11B2); from tissue; host or cells: cynomolgus monkey adrenal gland mitochondria
T1 sequence (A0A2K5UPL9 1-503): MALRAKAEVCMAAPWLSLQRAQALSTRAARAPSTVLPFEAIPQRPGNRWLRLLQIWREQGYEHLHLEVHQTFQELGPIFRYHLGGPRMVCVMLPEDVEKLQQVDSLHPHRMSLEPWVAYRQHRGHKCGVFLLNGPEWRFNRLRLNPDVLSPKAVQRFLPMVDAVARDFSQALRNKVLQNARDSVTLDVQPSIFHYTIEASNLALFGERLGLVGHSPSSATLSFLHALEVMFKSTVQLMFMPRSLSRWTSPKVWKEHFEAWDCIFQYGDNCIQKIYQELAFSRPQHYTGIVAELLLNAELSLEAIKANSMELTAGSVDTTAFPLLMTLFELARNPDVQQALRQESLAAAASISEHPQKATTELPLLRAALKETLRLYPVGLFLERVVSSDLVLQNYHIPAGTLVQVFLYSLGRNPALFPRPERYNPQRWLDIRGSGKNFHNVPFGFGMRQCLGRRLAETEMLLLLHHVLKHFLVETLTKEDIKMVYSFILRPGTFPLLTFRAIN
Protocol: (§1) The aldosterone synthase and cortisol synthase inhibition assays employ cynomolgus adrenal gland mitochondria as the source of aldosterone synthase (CYP11B2) and cortisol synthase (CYP11B1). Mitochondria are prepared from frozen cynomolgus monkey adrenal glands according to Method A described in by J. D. McGarry et al. (Biochem. J., 1983, 214, 21-28), with a final resuspension in the AT buffer described in R. Yamaguchi et al. (Cell Death and Differentiation, 2007, 14, 616-624), frozen as aliquots in liquid nitrogen and stored at −80° C. until use. Activity of CYP11B2 and CYP11B1 in these preparations is defined as the amount of enzyme that generates 1 pmol of product in one hour under the conditions described.
Assays are performed in 96-well format in a final volume of 60 µL/well, containing 100 mM potassium phosphate, pH 7.4, 1% (v/v) DMSO, and additionally, 2 μM of corticosterone and 50 units of CYP11B2 activity. Reactions are started by the addition of NADPH to 1 mM and allowed to proceed for 90 minutes at 37° C. Reactions are terminated by the addition of 60 μL of MeCN containing an internal standard for mass spectrometry. One hundred microliters are then transferred to a glass filter plate and centrifuged at 570×g for 5 minutes and the filtrate is collected. Reaction product aldosterone is quantified by mass spectrometry. To determine the assay blank value (0% activity), NADPH is omitted from some reactions.
Dose dependent inhibition is quantified by the inclusion of compound at various concentrations. Maximum activity (100%) is defined by reactions containing NADPH, but without compound. Activities at each concentration are expressed as a percentage of the maximum activity (y-axis) and plotted against concentration of compound (x-axis) and the concentration corresponding to 50% activity (IC50) determined using the XLFit curve-fitting program using a 4-parameter logistic model.

[2] = biological target: cortisol synthase (CYP11B1) (Macaca fascicularis, UniProt A0A2K5ULY1); assay: Inhibition of cortisol synthesis (cynomolgus adrenal mitochondria, cortisol by mass spectrometry); assay type: biochemical, cynomolgus monkey
Protocol: as §1, with “described. Dose dependent inhibition is quantified by the inclusion of compound at various concentrations. Maximum activity (100%) is defined by reactions containing NADPH, but without compound. Activities at each concentration are expressed as a percentage of the maximum activity (y-axis) and plotted against concentration of compound (x-axis) and the concentration corresponding to 50% activity (IC50) determined using the XLFit curve-fitting program using a 4-parameter logistic model. Assays are performed as for aldosterone synthase except for the use of 150 units of CYP11B1, 11-deoxycortisol as substrate and cortisol measured as product.” for “described.”

[3] = cynomolgus adrenal gland mitochondria, 11-deoxycortisol as substrate, cortisol measured as product; read-out: CYP11B1 Inhibition IC50

Row | Structure (SMILES) | IC50 [1] | IC50 [2, 3] | IC50 ([2]; read-out: CYP11B1 Inhibition IC50; cynomolgus adrenal gland mitochondria, 11-deoxycortisol as substrate, cortisol measured as product)
1 | COc1ccc(Cc2onc3c2C(=O)CC(C2CCOCC2)C3)cc1 (stereo not shown) [Cpd 8, 3-(4-Methoxy-benzyl)-6-(tetrahydro-pyran-4-yl)-6,7-dihydro-5H-benzo[c]isoxazol-4-one] | 78 nM | > 100000 nM | 
2 | CC1(C)CC(=O)c2c(noc2Cc2ccc(I)cc2)C1 [Cpd 25, 3-(4-Iodo-benzyl)-6,6-dimethyl-6,7-dihydro-5H-benzo[c]isoxazol-4-one] | 29 nM | 2800 nM | 
3 | CC1(C)CC(=O)c2c(noc2Cc2ccc(S(C)(=O)=O)cc2)C1 [Cpd 9, 3-(4-Methanesulfonyl-benzyl)-6,6-dimethyl-6,7-dihydro-5H-benzo[c]isoxazol-4-one] | 84 nM | 3700 nM | 
4 | CC(=O)N1CCC(Cc2onc3c2C(=O)CC(C(C)C)C3)CC1 (single isomer, unassigned) [Cpd 15B, 3-(1-Acetyl-piperidin-4-ylmethyl)-6-isopropyl-6,7-dihydro-5H-benzo[c]isoxazol-4-one] | 110 nM | 18000 nM | 
5 | C[C@H](O)CNC(=O)c1ccc(Cc2onc3c2C(=O)CC(C)(C)C3)cc1 [Cpd 71, 4-(6,6-Dimethyl-4-oxo-4,5,6,7-tetrahydro-benzo[c]isoxazol-3-ylmethyl)-N-((S)-2-hydroxy-propyl)-benzamide] | 170 nM | 20000 nM | 
6 | CC1(C)CC(=O)c2c(noc2Cc2ccc(OCCS(C)(=O)=O)cc2)C1 [Cpd 29, 3-[4-(2-Methanesulfonyl-ethoxy)-benzyl]-6,6-dimethyl-6,7-dihydro-5H-benzo[c]isoxazol-4-one] | 73 nM | 7400 nM | 
7 | CCN(CCO)C(=O)c1ccc(Cc2onc3c2C(=O)CC(C)(C)C3)cc1 [Cpd 55, 4-(6,6-Dimethyl-4-oxo-4,5,6,7-tetrahydro-benzo[c]isoxazol-3-ylmethyl)-N-ethyl-N-(2-hydroxy-ethyl)-benzamide] | 68 nM | 5400 nM | 
8 | N#Cc1ccc(Cc2onc3c2C(=O)CC2(CCC2)C3)cc1 [Cpd 38, 4-(-6,6-spiro-cyclobutyl-4-oxo-4,5,6,7-tetrahydro-benzo[c]isoxazol-3-ylmethyl)-benzonitrile] | 55 nM | 1000 nM | 
9 | CC1CC(=O)c2c(noc2Cc2ccc(C#N)cc2)C1 (stereo not shown) [Cpd 36, 4-(6-Methyl-4-oxo-4,5,6,7-tetrahydro-benzo[c]isoxazol-3-ylmethyl)-benzonitrile] | 200 nM | 7600 nM | 
10 | CC1(C)CC(=O)c2c(noc2Cc2ccc(C(=O)NCC3(CO)CCCC3)cc2)C1 [Cpd 70, 4-(6,6-Dimethyl-4-oxo-4,5,6,7-tetrahydro-benzo[c]isoxazol-3-ylmethyl)-N-(1-hydroxymethyl-cyclopentylmethyl)-benzamide] | 160 nM | 11000 nM | 
11 | CC1(C)CC(=O)c2c(noc2Cc2cccc(F)c2)C1 [Cpd 31, 3-(3-Fluoro-benzyl)-6,6-dimethyl-6,7-dihydro-5H-benzo[c]isoxazol-4-one] | 84 nM | 7400 nM | 
12 | N#Cc1ccc(Cc2onc3c2C(=O)CC(Cc2ccccc2)C3)cc1 (stereo not shown) [Cpd 28, 4-(6-Benzyl-4-oxo-4,5,6,7-tetrahydro-benzo[c]isoxazol-3-ylmethyl)-benzonitrile] | 65 nM | 4900 nM | 
13 | COc1ccc(Cc2onc3c2C(=O)CC(C)(C)C3)cc1C#N [Cpd 34, 5-(6,6-Dimethyl-4-oxo-4,5,6,7-tetrahydro-benzo[c]isoxazol-3-ylmethyl)-2-methoxy-benzonitrile] | 120 nM | 25000 nM | 
14 | NC(=O)c1ccc(Cc2onc3c2C(=O)CC(CC2CC2)C3)cc1 (stereo not shown) [Cpd 51, 4-(6-Cyclopropylmethyl-4-oxo-4,5,6,7-tetrahydro-benzo[c]isoxazol-3-ylmethyl)-benzamide] | 21 nM | 3700 nM | 
15 | CC1(C)Cc2noc(Cc3ccc(OCCS(C)(=O)=O)cc3)c2C(=O)O1 [Cpd 91, 3-[4-(2-Methanesulfonyl-ethoxy)-benzyl]-6,6-dimethyl-6,7-dihydro-pyrano[4,3-c]isoxazol-4-one] | 120 nM | 21000 nM | 
16 | CS(=O)(=O)CCCOc1ccc(Cc2onc3c2C(=O)CC(Cc2ccccc2)C3)cc1 (stereo not shown) [Cpd 49, 6-Benzyl-3-[4-(3-methanesulfonyl-propoxy)-benzyl]-6,7-dihydro-5H-benzo[c]isoxazol-4-one] | 150 nM | 1100 nM | 
17 | CN(C)C(=O)CCOc1ccc(Cc2onc3c2C(=O)CC(C)(C)C3)cc1 [Cpd 82, 3-[4-(6,6-Dimethyl-4-oxo-4,5,6,7-tetrahydro-benzo[c]isoxazol-3-ylmethyl)-phenoxy]-N,N-dimethyl-propionamide] | 44 nM | 4000 nM | 
18 | CC(C)C1CC(=O)c2c(noc2Cc2ccc(C#N)cc2)C1 (single isomer, unassigned) [Cpd 39A, 4-(-6-Isopropyl-4-oxo-4,5,6,7-tetrahydro-benzo[c]isoxazol-3-ylmethyl)-benzonitrile] | 230 nM | 8300 nM | 
19 | CC(C)C1CC(=O)c2c(noc2CC2CCNCC2)C1 (stereo not shown) [Cpd 14, 4-(6-Isopropyl-4-oxo-4,5,6,7-tetrahydro-benzo[c]isoxazol-3-ylmethyl)-piperidinium hydrochloride] | 2400 nM |  | > 30000 nM
20 | O=C(O)c1ccc(Cc2onc3c2C(=O)CC(CC2CC2)C3)cc1 (stereo not shown) [Cpd 45, 4-(6-Cyclopropylmethyl-4-oxo-4,5,6,7-tetrahydro-benzo[c]isoxazol-3-ylmethyl)-benzoic acid] | 420 nM | 64000 nM | 
21 | CC1(C)CC(=O)c2c(noc2Cc2ccc(C(=O)N3CC[C@@H](O)C3)cc2)C1 [Cpd 46, 3-[4-((R)-3-Hydroxy-pyrrolidine-1-carbonyl)-benzyl]-6,6-dimethyl-6,7-dihydro-5H-benzo[c]isoxazol-4-one] | 130 nM | 5800 nM | 
22 | O=C1CC(Cc2ccccc2)Cc2noc(Cc3ccccc3)c21 (stereo not shown) [Cpd 26, 3,6-Dibenzyl-6,7-dihydro-5H-benzo[c]isoxazol-4-one] | 49 nM | 2300 nM | 
23 | CC1(C)CC(=O)c2c(noc2Cc2ccc(C#N)c(F)c2)C1 [Cpd 37, 4-(6,6-Dimethyl-4-oxo-4,5,6,7-tetra hydro-benzo[c]isoxazol-3-ylmethyl)-2-fluoro-benzonitrile] | 74 nM | 11000 nM | 
24 | CC1(C)CC(=O)c2c(noc2Cc2ccc(C(=O)N3CC[C@H](S(C)(=O)=O)C3)cc2)C1 [Cpd 53, 3-[4-((S)-3-Methanesulfonyl-pyrrolidine-l-carbonyl)-benzyl]-6,6-dimethyl-6,7-dihydro-5H-benzo[c]isoxazol-4-one] | 42 nM | 6700 nM | 
25 | CC(C)C1CC(=O)c2c(noc2Cc2ccc(OCCCS(C)(=O)=O)cc2)C1 (stereo not shown) [Cpd 47, 6-Isopropyl-3-[4-(3-methanesulfonyl-propoxy)-benzyl]-6,7-dihydro-5H-benzo[c]isoxazol-4-one] | 20 nM | 130 nM | 
26 | CC(C)C1CC(=O)c2c(noc2CC2CC2)C1 (stereo not shown) [Cpd 6, 3-Cyclopropylmethyl-6-isopropyl-6,7-dihydro-5H-benzo[c]isoxazol-4-one] | 27 nM | 21000 nM | 
